Experimental findings from patent publication US5767116A, “Bicyclic aromatic compounds as therapeutic agents” (Knoll Atkiengesellschaft, priority 1993, dated 1998) are described below.

A word on the Ki: it is the dissociation constant of the complex between target and ligand, obtained from inhibition or displacement. Low readings indicate higher affinity, high ones lower affinity.

Structures can show the parent of a compound that is named as a salt.

For one assay, the target named is D2 dopamine receptors (Rattus norvegicus, UniProt P61169). The experiment in a line: biochemical. It is filed as binding, rat (male Charles River CD). The following applies: rat striatal tissue, tritiated (S)-sulpiride, 4° C., 40 minutes.
The target in a further assay is α1-adrenoceptors. Nature of the assay: inhibition of tritiated ligand ([7-methoxy-^3 H]prazosin) binding to α1-adrenoceptors in vitro (whole cortical tissue). Also on record: species or system rat (male Charles River CD). As to conditions: rat whole cortical tissue; for Ki: 30° C., 30 minutes, > from highest concentration which displaced ≤50% of the ligand. As for the experimental part: The supernatant was centrifuged at 30,000 g at 4° C. for 10 minutes. […] Aliquots (400 μl; equivalent to 5 mg wet weight of tissue/tube) of this suspension were added to tubes containing the ligand (50 μl; 0.1 nM) and distilled water (50 μl; total binding) or phentolamine (50 μl; 5 μM; non-specific binding) or test compound (50 μl; at a single concentration of 10^-6 M or at 10 concentrations ranging from 10^-11 -10^-3 M). The ligand was [7-methoxy-^3 H]prazosin and the mixture was incubated at 30° C. for 30 minutes before the incubation was terminated by rapid filtration.
(§1) The filters were punched out into vials, scintillation fluid added and radioactivity determined by liquid scintillation counting. The percentage displacement of specific binding of the tritiated ligand was calculated for the single concentration (10^-6 M) of test compound. Displacement curves were then produced for those compounds which displaced ≥50% of specific binding of the tritiated ligand at 10^-6 M using a range of concentrations of the compound. […] The inhibition coefficient Ki was then calculated using the formula [formula] in which [ligand] is the concentration of the tritiated ligand used and KD is the equilibrium dissociation constant for the ligand.

For the next assay, the target named is T1, α2-adrenoceptors (Rattus norvegicus, UniProt P22909).
T1 sequence (P22909 1-465): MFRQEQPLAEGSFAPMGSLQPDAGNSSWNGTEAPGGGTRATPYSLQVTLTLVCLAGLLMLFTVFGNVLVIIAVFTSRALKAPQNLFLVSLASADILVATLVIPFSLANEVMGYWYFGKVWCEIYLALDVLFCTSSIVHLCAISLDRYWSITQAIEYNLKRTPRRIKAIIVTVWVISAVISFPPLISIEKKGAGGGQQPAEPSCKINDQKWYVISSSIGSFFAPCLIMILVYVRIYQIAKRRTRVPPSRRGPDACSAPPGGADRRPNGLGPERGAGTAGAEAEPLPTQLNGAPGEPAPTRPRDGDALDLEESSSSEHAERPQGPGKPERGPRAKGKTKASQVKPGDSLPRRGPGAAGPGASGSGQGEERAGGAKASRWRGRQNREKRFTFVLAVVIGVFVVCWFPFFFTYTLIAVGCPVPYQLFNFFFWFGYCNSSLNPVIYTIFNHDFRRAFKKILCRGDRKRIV
Nature of the assay: inhibition of tritiated ligand (tritiated idazoxan) binding to α2-adrenoceptors in vitro (frontal cortical tissue). Also on record: species or system rat (male Charles River CD). The following applies: rat frontal cortical tissue, tritiated idazoxan, 0° C., 75 minutes; > from highest concentration which displaced ≤50% of the ligand. The method, then: Frontal cortical tissue from the brains of male Charles River CD rats weighing between 150-250 g were homogenised in ice-cold 0.25M sucrose (1:30 w/v) and centrifuged at 1,000 g at 4° C. for 12 minutes. The supernatant was stored on ice and the pellet was rehomogenised in 0.25M sucrose (1:15 w/v) and centrifuged at 850 g at 4° C. for 12 minutes. Combined supernatants were diluted with 5 mM Tris-HCl (pH 7.5) containing 0.5M ethylenediamine tetraacetic acid (EDTA) readjusted to pH 7.5 (at 25° C.) with 1M sodium hydroxide to 1:80 w/v, and centrifuged at 30,000 g at 4° C. for 10 minutes. The resulting pellet was resuspended in 5 mM Tris-HCl (pH 7.5) containing 5.68 mM L-ascorbic acid and 5 mM EDTA readjusted to pH 7.5 (at 25° C.) with 1M sodium hydroxide, and centrifuged at 30,000 g for 10 minutes. The final pellet was resuspended in 50 mM Tris-HCl (pH 7.5) containing 5.68 mM L-ascorbic acid and 5 mM EDTA (equivalent to 12.5 mg wet weight of tissue/ml) and used immediately in the binding assay. Aliquots (400 μl; equivalent to 5 mg wet weight of tissue/tube) of this suspension were added to tubes containing the ligand (50 μl; 1 nM) and distilled water (50 μl; total binding) or phentolamine (50 μl; 5 μM; non-specificbinding) or test compound (50 μl; at a single concentration of 10^-6 M or at 10 concentrations ranging from 10^-11 -10^-3 M). The ligand was tritiated idazoxan ((1,4-[6,7(n)-^3 H]benzodioxan-2-yl)-2-imidazoline hydrochloride) and the mixture was incubated at 0° C. for 75 minutes before the incubation was terminated by rapid filtration.
as §1, with “The filters were washed with ice-cold Tris-HCl buffer and dried. The filters” for “The filters”

The next assay has as its target T2, 5-HT1A receptors (Rattus norvegicus, UniProt P19327).
T2 sequence (P19327 1-422): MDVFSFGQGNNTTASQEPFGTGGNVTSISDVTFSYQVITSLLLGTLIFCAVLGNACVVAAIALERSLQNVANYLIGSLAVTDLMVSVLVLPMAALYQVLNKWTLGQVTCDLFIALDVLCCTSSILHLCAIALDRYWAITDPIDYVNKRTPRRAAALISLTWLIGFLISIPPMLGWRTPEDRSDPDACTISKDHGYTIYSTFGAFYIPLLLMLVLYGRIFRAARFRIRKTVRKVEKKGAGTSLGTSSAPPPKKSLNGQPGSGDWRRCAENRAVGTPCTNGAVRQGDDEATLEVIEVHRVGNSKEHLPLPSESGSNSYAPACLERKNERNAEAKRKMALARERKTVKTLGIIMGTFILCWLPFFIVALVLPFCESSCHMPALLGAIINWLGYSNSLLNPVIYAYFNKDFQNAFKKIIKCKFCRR
The experiment in a line: biochemical. It is filed as binding, rat (male Charles River CD). As to conditions: rat hippocampal tissue, [^3 H]8-OH-DPAT; for Ki: 25° C., 30 minutes. The method, then:
The pellet was rehomogenised in the same buffer, incubated at 37° C. for 10 minutes and centrifuged at 30,000 g at 4° C. for 10 minutes. […] Aliquots (400 μl; equivalent to 2.5 mg wet weight of tissue/tube) of this suspension were added to tubes containing the ligand (50 μl; 2 nM) and distilled water (50 μl; total binding) or 5-HT (50 μl; 10 µM; non-specific binding) or test compound (50 μl; at a single concentration of 10^-6 M or at 10 concentrations ranging from 10^-11 -10^-3 M). The ligand was [^3 H]8-hydroxy-2-(dipropylamino)tetralin([^3 H]8-OH-DPAT) and the mixture was incubated at 25° C. for 30 minutes before the incubation was terminated by rapid filtration.
as §1

Chain of D2 dopamine receptors (P61169 whole entry): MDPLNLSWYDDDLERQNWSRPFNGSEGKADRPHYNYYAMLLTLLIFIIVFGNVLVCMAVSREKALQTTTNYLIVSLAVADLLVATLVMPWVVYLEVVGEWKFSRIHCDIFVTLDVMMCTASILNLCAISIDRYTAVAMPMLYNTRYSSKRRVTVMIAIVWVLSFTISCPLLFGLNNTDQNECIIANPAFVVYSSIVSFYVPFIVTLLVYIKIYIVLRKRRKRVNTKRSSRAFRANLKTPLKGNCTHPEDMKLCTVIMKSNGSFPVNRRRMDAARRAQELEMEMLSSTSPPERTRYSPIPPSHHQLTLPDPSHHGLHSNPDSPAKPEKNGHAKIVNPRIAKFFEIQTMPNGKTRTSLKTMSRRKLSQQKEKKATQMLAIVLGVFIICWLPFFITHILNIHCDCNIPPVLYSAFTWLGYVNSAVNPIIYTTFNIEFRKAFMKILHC

In the case of `c1ccc(N2CCC(CNCC3COc4ccccc4O3)CC2)nc1` (stereo not drawn) [Example 5, N-(1,4-benzodioxan-2-ylmethyl)-1-[1-(pyrid-2-yl)piperid-4-yl]methylamine dihydrochloride], the Ki at D2 dopamine receptors was 29 nM; at α1-adrenoceptors it was 79 nM; on α2-adrenoceptors, 50 nM; at 5-HT1A receptors, 22.6 nM.
“N-(7-chloro-1,4-benzodioxan-2-ylmethyl)-1-[1-(2-methoxyphenyl) piperid-4-yl]methylamine and N-(6-chloro-1,4-benzodioxan-2-ylmethyl)-1-[1-(2-methoxy phenyl)-piperid-4-yl]methylamine 1.7 hydrochloride hydrate [Example 27]”: the Ki on D2 dopamine receptors was 61.7 nM; on α2-adrenoceptors, more than 500 nM. Further, the “% displacement at 10^-6 M, α1” value in the assay with α1-adrenoceptors (10^-6 M, 30 min, 1 µM) amounted to 58%. For the same molecule, the “% displacement at 10^-6 M, 5-HT1A” value at 5-HT1A receptors (10^-6 M) is recorded as 94%.
Consider `Clc1cccnc1N1CCC(CNCC2COc3ccccc3O2)CC1` (stereo not drawn) [Example 3, N-(1,4-benzodioxan-2-ylmethyl)-1-[1-(3-chloropyrid-2-yl)piperid-4-yl]methylamine 1.4 hydrochloride], for which the Ki at D2 dopamine receptors stood at 45.3 nM; at α1-adrenoceptors, 38 nM; on α2-adrenoceptors, 86 nM; at 5-HT1A receptors it was 1.9 nM.
